Data from EP1247803A2, “Indolinone compounds suitable for modulation of protein kinases” (Sugen, Inc., priority 1996, dated 1998).

Columns and labels:
FLK-1 receptor = target: T1, FLK-1 receptor (Mus musculus, UniProt P35918); assay: FLK-1 ELISA (kinase activity of the FLK-1 receptor in FLK-1/NIH3T3 cells, VEGF stimulated); assay type: cell-based; parameters: concentration or dose not given beside the values
T1 construct: expressed in transfected cells; host or cells: NIH3T3 C7#3
Experimental: An enzyme linked immunosorbent assay (ELISA) was conducted to measure the catalytic activity of the FLK-1 receptor and more specifically, the inhibition or activation of indolinone compounds on the catalytic activity of the FLK-1 receptor. Specifically, the following assay was conducted to measure catalytic activity of the FLK-1 receptor in FLK-1/NIH3T3 cells.
The materials and protocol for the FLK-1 ELISA assay are as described in International Patent Publication No. WO 96/40116, published December 19, 1996 by Tang et al.
Selected compounds were tested in the FLK-1 ELISA assay.
An ELISA assay was conducted to measure the kinase activity of the FLK-1 receptor and more specifically, the inhibition or activation of protein tyrosine kinase activity on the FLK-1 receptor. Specifically, the following assay was conducted to measure kinase activity of the FLK-1 receptor in FLK-1/NIH3T3 cells.
Materials. The following reagents and supplies were used: • a. […] Cappel goat anti-rabbit IgG (catalog no. 55641); • c. PBS (Gibco Catalog No. 450-1300EB); • d. TBSW Buffer (50 mM Tris (pH 7.2), 150 mM NaCl and 0.1% Tween-20); • e. Ethanolamine stock (10% ethanolamine (pH 7.0), stored at 4°C); • f. HNTG buffer (20mM HEPES buffer (pH 7.5), 150mM NaCl, 0.2% Triton X-100, and 10% glycerol); • g. EDTA (0.5 M (pH 7.0) as a 100X stock); • h. Sodium ortho vanadate (0.5 M as a 100X stock); • i. Sodium pyro phosphate (0.2M as a 100X stock); • j. NUNC 96 well V bottom polypropylene plates (Applied Scientific Catalog No. AS-72092); • k. NIH3T3 C7#3 Cells (FLK-1 expressing cells); • l. DMEM with 1X high glucose L Glutamine (catalog No. 11965-050); • m. FBS, Gibco (catalog no. 16000-028); • n. L-glutamine, Gibco (catalog no. 25030-016); • o. VEGF, PeproTech, Inc. (catalog no. 100-20)(kept as 1 µg/100 µl stock in Milli-Q dH2O and stored at -20°C; • p. Affinity purified anti-FLK-1 antiserum which can be obtained or purified as follows: • 1. Prepare a Tresyl-Activated Agarose/Flk-1-D column by incubating 10 ml of Tresyl-Activated Agarose with 20 mg of purified GST-Flk-1-D fusion protein in 100mM sodium bicarbonate (pH 9.6) buffer overnight at 4 °C. • 2. Wash the column once with PBS. • 3. Block the excess sites on the column with 2 M glycine for 2 hours at 4°C. • 4. Wash the column with PBS. • 5. Incubate the column with Rabbit anti-Flk-1D production bleed for 2 hours at 4 °C. • 6. Wash the column with PBS. • 7. Elute antiserum with 100 mM Citric Acid, pH3.0 and neutralize the eluate immediately with 2 M Tris, pH 9.0. • 8. Dialyize the eluate against PBS overnight at 4 °C with 3 changes of buffer (sample to buffer ratio is 1:100). • 9. Adjust the dialyized antiserum to 5% glycerol and store at -80 °C in small aliquotes. • q.
Protocol. The following protocol was used for conducting the assay: • 1. Coat Corning 96-well elisa plates with 1.0µg per well Cappel Anti-rabbit IgG antibody in 0.1M Na2CO3 pH 9.6. Bring final volume to 150 µl per well. Coat plates overnight at 4°C. Plates can be kept up to two weeks when stored at 4°C. • 2. Grow cells in Growth media(DMEM, supplemental with 2.0mM L-Glutamine, 10% FBS) in suitable culture dishes until confluent at 37°C, 5% CO2. • 3. Harvest cells by trypsinization and seed in Corning 25850 polystyrene 96-well roundbottom cell plates, 25.000 cells/well in 200µl of growth media. • 4. Grow cells at least one day at 37°C, 5% CO2. • 5. Wash cells with D-PBS 1X. • 6. Add 200µl/well of starvation media (DMEM, 2.0mM 1-Glutamine, 0.1% FBS). Incubate overnight at 37°C, 5% CO2. • 7. Dilute Compounds/Extracts 1:20 in polypropylene 96 well plates using starvation media. Dilute dimethylsulfoxide 1:20 for use in control wells. • 8. Remove starvation media from 96 well cell culture plates and add 162 µl of fresh starvation media to each well. • 9. Add 18µl of 1:20 diluted Compound/Extract dilution (from step 7) to each well plus the 1:20 dimethylsulfoxide dilution to the control wells (+/- VEGF), for a final dilution of 1:200 after cell stimulation. […]

PDGF-R = PDGF-R (Homo sapiens, UniProt P09619); assay: PDGF-R ELISA; assay type: cell-based
Description: A PDGF-R ELISA is described in International Patent Publication No. WO 96/40116, published December 19, 1996 by Tang et al.

T1 sequence (P35918 20-1345): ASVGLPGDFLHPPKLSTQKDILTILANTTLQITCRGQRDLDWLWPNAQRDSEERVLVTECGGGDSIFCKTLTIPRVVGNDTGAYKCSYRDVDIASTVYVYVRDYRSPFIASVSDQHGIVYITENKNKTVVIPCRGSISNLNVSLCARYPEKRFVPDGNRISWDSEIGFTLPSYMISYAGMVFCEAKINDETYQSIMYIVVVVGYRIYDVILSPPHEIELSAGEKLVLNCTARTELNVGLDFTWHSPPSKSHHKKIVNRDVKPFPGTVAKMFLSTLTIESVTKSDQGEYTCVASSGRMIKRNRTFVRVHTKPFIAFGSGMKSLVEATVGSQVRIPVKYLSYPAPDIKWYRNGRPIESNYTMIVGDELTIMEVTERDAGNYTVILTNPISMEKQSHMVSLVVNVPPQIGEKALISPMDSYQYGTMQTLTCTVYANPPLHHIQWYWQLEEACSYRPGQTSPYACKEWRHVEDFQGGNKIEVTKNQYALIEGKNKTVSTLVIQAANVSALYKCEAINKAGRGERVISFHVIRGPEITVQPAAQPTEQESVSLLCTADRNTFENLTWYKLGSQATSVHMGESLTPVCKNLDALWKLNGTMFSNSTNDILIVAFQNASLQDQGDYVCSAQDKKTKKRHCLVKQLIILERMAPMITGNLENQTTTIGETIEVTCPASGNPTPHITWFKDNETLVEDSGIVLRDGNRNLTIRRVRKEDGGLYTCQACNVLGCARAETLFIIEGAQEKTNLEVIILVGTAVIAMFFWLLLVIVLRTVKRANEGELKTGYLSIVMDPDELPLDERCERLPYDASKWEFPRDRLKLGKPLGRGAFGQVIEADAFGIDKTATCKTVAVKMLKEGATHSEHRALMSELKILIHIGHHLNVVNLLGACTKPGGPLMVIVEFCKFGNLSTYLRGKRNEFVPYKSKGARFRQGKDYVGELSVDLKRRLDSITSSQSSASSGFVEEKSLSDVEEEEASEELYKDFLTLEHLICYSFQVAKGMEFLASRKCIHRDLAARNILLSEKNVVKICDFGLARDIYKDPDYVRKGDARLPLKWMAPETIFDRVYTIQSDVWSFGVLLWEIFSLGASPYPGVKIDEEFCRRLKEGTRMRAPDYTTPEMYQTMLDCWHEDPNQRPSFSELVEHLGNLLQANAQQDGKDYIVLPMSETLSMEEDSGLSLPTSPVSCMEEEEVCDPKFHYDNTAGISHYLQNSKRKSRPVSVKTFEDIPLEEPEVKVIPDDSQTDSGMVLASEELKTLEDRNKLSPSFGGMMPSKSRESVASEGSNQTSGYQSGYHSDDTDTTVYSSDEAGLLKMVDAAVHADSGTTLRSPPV
PDGF-R, sequence (P09619 33-1106, species assumed): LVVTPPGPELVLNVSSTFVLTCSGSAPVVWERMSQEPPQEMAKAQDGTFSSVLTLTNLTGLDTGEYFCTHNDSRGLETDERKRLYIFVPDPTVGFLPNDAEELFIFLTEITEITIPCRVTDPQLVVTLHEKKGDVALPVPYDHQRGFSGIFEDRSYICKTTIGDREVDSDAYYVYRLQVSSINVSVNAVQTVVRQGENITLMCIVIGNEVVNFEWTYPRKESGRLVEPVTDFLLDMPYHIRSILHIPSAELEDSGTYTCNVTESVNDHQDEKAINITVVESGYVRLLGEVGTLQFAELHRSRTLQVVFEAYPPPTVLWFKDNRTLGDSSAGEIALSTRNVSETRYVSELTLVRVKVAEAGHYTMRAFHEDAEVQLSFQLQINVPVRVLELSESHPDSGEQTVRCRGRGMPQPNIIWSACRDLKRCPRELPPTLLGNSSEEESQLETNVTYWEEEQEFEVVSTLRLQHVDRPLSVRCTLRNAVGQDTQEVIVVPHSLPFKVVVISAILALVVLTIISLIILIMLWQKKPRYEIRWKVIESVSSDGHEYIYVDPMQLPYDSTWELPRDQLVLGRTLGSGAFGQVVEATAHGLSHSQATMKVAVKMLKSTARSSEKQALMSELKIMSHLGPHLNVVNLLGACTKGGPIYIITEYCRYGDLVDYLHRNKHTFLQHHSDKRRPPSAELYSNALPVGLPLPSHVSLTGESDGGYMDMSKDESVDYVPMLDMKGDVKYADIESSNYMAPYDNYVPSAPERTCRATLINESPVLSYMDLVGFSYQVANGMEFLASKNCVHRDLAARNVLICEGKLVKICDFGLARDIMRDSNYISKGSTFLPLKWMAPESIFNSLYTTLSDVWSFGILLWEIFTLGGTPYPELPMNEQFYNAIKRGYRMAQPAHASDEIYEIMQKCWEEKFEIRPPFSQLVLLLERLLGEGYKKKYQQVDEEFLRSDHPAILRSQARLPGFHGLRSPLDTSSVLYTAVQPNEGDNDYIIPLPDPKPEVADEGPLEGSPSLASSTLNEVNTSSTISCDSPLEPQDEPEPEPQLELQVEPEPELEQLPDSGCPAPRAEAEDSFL

## O=C1Nc2ccc(S(=O)(=O)Nc3ccc(C(F)(F)F)cc3)cc2C1=Cc1c[nH]c(=O)[nH]c1=O [10731/E08]
FLK-1 receptor
  Fik Kinase %Inhibition: 10.5%
PDGF-R
  PDGF Kinase %Inhibition: 8.9%

## Cc1ccc2occ(C=C3C(=O)Nc4ccc(S(=O)(=O)Nc5ccc(C(F)(F)F)cc5)cc43)c(=O)c2c1 [10731/E06]
FLK-1 receptor
  Fik Kinase %Inhibition: 2.6%
PDGF-R
  PDGF Kinase %Inhibition: -12.0%

## Cc1ccc2occ(C=C3C(=O)Nc4ccc(CCCl)cc43)c(=O)c2c1 [10731/G06]
FLK-1 receptor
  Fik Kinase %Inhibition: 10.8%
PDGF-R
  PDGF Kinase %Inhibition: -0.6%

## COc1c(C(C)C)cc(C=C2C(=O)Nc3ccc(Br)c(C)c32)cc1C(C)C [10732/C03]
FLK-1 receptor
  Fik Kinase %Inhibition: 14.7%
PDGF-R
  PDGF Kinase %Inhibition: 7.3%

## CCn1c2ccccc2c2cc(C=C3C(=O)Nc4ccc(S(=O)(=O)Nc5ccc(C(F)(F)F)cc5)cc43)ccc21 [10731/E02]
FLK-1 receptor
  Fik Kinase %Inhibition: 11.2%
PDGF-R
  PDGF Kinase %Inhibition: 13.7%

## CC(C)(C)c1cc(C=C2C(=O)Nc3ccc(I)cc32)cc(Cl)c1OCc1ccccc1 [10732/B10]
FLK-1 receptor
  Fik Kinase %Inhibition: 12.1%
PDGF-R
  PDGF Kinase %Inhibition: 0.7%

## COc1ccc(C=C2C(=O)Nc3ccc(I)cc32)cc1C(C)(C)C [10732/B05]
FLK-1 receptor
  Fik Kinase %Inhibition: 2.8%
PDGF-R
  PDGF Kinase %Inhibition: 21.9%

## CNS(=O)(=O)c1ccc2c(c1)C(=Cc1ccc(OCc3ccccc3)c(C(C)(C)C)c1)C(=O)N2 [10732/D06]
FLK-1 receptor
  Fik Kinase %Inhibition: 16.3%
PDGF-R
  PDGF Kinase %Inhibition: 16.4%

## O=C1Nc2c(Br)cc(Br)cc2C1=CC(c1cccs1)C(F)(F)F (stereo not drawn) [10732/A02]
FLK-1 receptor
  Fik Kinase %Inhibition: -12.5%
PDGF-R
  PDGF Kinase %Inhibition: 10.8%

## C=C(C)C1CC=C(C=C2C(=O)Nc3ccc(S(=O)(=O)Nc4ccc(C(F)(F)F)cc4)cc32)CC1 (stereo not drawn) [10731/E04]
FLK-1 receptor
  Fik Kinase %Inhibition: 23.8%
PDGF-R
  PDGF Kinase %Inhibition: 30.8%

## CCn1c2ccccc2c2cc(C=C3C(=O)Nc4ccc(S(=O)(=O)N5CCOCC5)cc43)ccc21 [10731/F02]
FLK-1 receptor
  Fik Kinase %Inhibition: 11.1%
PDGF-R
  PDGF Kinase %Inhibition: 14.1%

## CNS(=O)(=O)c1ccc2c(c1)C(=Cc1cc(Br)c(OCc3ccccc3)c(C(C)(C)C)c1)C(=O)N2 [10732/D08]
FLK-1 receptor
  Fik Kinase %Inhibition: 33.3%
PDGF-R
  PDGF Kinase %Inhibition: 30.5%

## O=C1Nc2ccc(CCCl)cc2C1=Cc1c[nH]c(=O)[nH]c1=O [10731/G08]
FLK-1 receptor
  Fik Kinase %Inhibition: 18.2%
PDGF-R
  PDGF Kinase %Inhibition: -13.9%

## C=C(C)C1CC=C(C=C2C(=O)Nc3ccc(CCCl)cc32)CC1 (stereo not drawn) [10731/G04]
FLK-1 receptor
  Fik Kinase %Inhibition: 14.5%
PDGF-R
  PDGF Kinase %Inhibition: 0.3%

## CNS(=O)(=O)c1ccc2c(c1)C(=Cc1cc(Cl)c(OCc3ccccc3)c(C(C)(C)C)c1)C(=O)N2 [10732/D10]
FLK-1 receptor
  Fik Kinase %Inhibition: 25.5%
PDGF-R
  PDGF Kinase %Inhibition: 24.5%

## CNS(=O)(=O)c1ccc2c(c1)C(=Cc1ccc(OC)c(C(C)(C)C)c1)C(=O)N2 [10732/D05]
FLK-1 receptor
  Fik Kinase %Inhibition: 15.7%
PDGF-R
  PDGF Kinase %Inhibition: 4.3%

## COc1c(I)cc(C=C2C(=O)Nc3c(Br)cc(Br)cc32)cc1C(C)(C)C [10732/A11]
FLK-1 receptor
  Fik Kinase %Inhibition: -0.6%
PDGF-R
  PDGF Kinase %Inhibition: 40.1%

## CN1C(=O)C(=C2C(=O)Nc3ccc(CCCl)cc32)c2ccccc21 [10731/G10]
FLK-1 receptor
  Fik Kinase %Inhibition: -9.0%
PDGF-R
  PDGF Kinase %Inhibition: 5.6%

## Cc1cc2occ(C=C3C(=O)Nc4ccc(S(=O)(=O)N5CCOCC5)cc43)c(=O)c2cc1C [10731/F03]
FLK-1 receptor
  Fik Kinase %Inhibition: 7.9%
PDGF-R
  PDGF Kinase %Inhibition: 11.8%

## COc1c(I)cc(C=C2C(=O)Nc3ccc(Br)c(C)c32)cc1C(C)(C)C [10732/C11]
FLK-1 receptor
  Fik Kinase %Inhibition: 18.2%
PDGF-R
  PDGF Kinase %Inhibition: 16.4%

## COc1c(Br)cc(C=C2C(=O)Nc3c(Br)cc(Br)cc32)cc1C(C)(C)C [10732/A07]
FLK-1 receptor
  Fik Kinase %Inhibition: -19.8%
PDGF-R
  PDGF Kinase %Inhibition: 0.7%

## CC(C)(C)c1cc(C=C2C(=O)Nc3ccc(I)cc32)cc(Br)c1OCc1ccccc1 [10732/B08]
FLK-1 receptor
  Fik Kinase %Inhibition: 8.0%
PDGF-R
  PDGF Kinase %Inhibition: 16.9%

## C=C(C)C1CC=C(C=C2C(=O)Nc3ccc(S(=O)(=O)N4CCOCC4)cc32)CC1 (stereo not drawn) [10731/F04]
FLK-1 receptor
  Fik Kinase %Inhibition: 24.5%
PDGF-R
  PDGF Kinase %Inhibition: 3.2%

## Cc1c(Br)ccc2c1C(=Cc1cc(Cl)c(OCc3ccccc3)c(C(C)(C)C)c1)C(=O)N2 [10732/C10]
FLK-1 receptor
  Fik Kinase %Inhibition: 15.1%
PDGF-R
  PDGF Kinase %Inhibition: 5.8%

## CNS(=O)(=O)c1ccc2c(c1)C(=CC(c1cccs1)C(F)(F)F)C(=O)N2 (stereo not drawn) [10732/D02]
FLK-1 receptor
  Fik Kinase %Inhibition: 9.2%
PDGF-R
  PDGF Kinase %Inhibition: -24.0%

## CC(C)(C)c1cc(C=C2C(=O)Nc3c(Br)cc(Br)cc32)ccc1OCc1ccccc1 [10732/A06]
FLK-1 receptor
  Fik Kinase %Inhibition: -0.0%
PDGF-R
  PDGF Kinase %Inhibition: 12.3%

## Cc1c(Br)ccc2c1C(=CC(c1cccs1)C(F)(F)F)C(=O)N2 (stereo not drawn) [10732/C02]
FLK-1 receptor
  Fik Kinase %Inhibition: 11.9%
PDGF-R
  PDGF Kinase %Inhibition: 7.3%

## CC(C)c1cc(C=C2C(=O)Nc3c(Br)cc(Br)cc32)cc(C(C)C)c1Oc1ccccc1 [10732/A04]
FLK-1 receptor
  Fik Kinase %Inhibition: -14.1%
PDGF-R
  PDGF Kinase %Inhibition: -9.4%

## O=C1Nc2ccc(S(=O)(=O)Nc3ccc(C(F)(F)F)cc3)cc2C1=Cc1coc2ccc([N+](=O)[O-])cc2c1=O [10731/E07]
FLK-1 receptor
  Fik Kinase %Inhibition: 12.6%
PDGF-R
  PDGF Kinase %Inhibition: 3.7%

## CC(C)c1ccc2occ(C=C3C(=O)Nc4ccc(CCCl)cc43)c(=O)c2c1 [10731/G05]
FLK-1 receptor
  Fik Kinase %Inhibition: 17.5%
PDGF-R
  PDGF Kinase %Inhibition: 8.0%

## O=C1Nc2ccc(I)cc2C1=CC(c1cccs1)C(F)(F)F (stereo not drawn) [10732/B02]
FLK-1 receptor
  Fik Kinase %Inhibition: 2.9%
PDGF-R
  PDGF Kinase %Inhibition: 23.5%

## CNS(=O)(=O)c1ccc2c(c1)C(=Cc1c[nH]c3ccc(OC)cc13)C(=O)N2 [10731/D09]
FLK-1 receptor
  Fik Kinase %Inhibition: 6.1%
PDGF-R
  PDGF Kinase %Inhibition: -2.0%

## Cc1c(Br)ccc2c1C(=Cc1ccc(OCc3ccccc3)c(C(C)(C)C)c1)C(=O)N2 [10732/C06]
FLK-1 receptor
  Fik Kinase %Inhibition: 11.8%
PDGF-R
  PDGF Kinase %Inhibition: 5.3%

## CNS(=O)(=O)c1ccc2c(c1)C(=Cc1c[nH]c(=O)[nH]c1=O)C(=O)N2 [10731/D08]
FLK-1 receptor
  Fik Kinase %Inhibition: 25.8%
PDGF-R
  PDGF Kinase %Inhibition: -8.7%

## COc1ccc2[nH]cc(C=C3C(=O)Nc4ccc(S(=O)(=O)Nc5ccc(C(F)(F)F)cc5)cc43)c2c1 [10731/E09]
FLK-1 receptor
  Fik Kinase %Inhibition: 52.5%
PDGF-R
  PDGF Kinase %Inhibition: 23.2%

## Cc1c(Br)ccc2c1C(=Cc1cc(Br)c(OCc3ccccc3)c(C(C)(C)C)c1)C(=O)N2 [10732/C08]
FLK-1 receptor
  Fik Kinase %Inhibition: 7.6%
PDGF-R
  PDGF Kinase %Inhibition: 17.9%

## CCn1c2ccccc2c2cc(C=C3C(=O)Nc4ccc(CCCl)cc43)ccc21 [10731/G02]
FLK-1 receptor
  Fik Kinase %Inhibition: 16.8%
PDGF-R
  PDGF Kinase %Inhibition: -10.1%

## COc1c(Cl)cc(C=C2C(=O)Nc3ccc(Br)c(C)c32)cc1C(C)(C)C [10732/C09]
FLK-1 receptor
  Fik Kinase %Inhibition: 8.0%
PDGF-R
  PDGF Kinase %Inhibition: 15.4%

## CC(C)(C)c1cc(C=C2C(=O)Nc3c(Br)cc(Br)cc32)cc(Cl)c1OCc1ccccc1 [10732/A10]
FLK-1 receptor
  Fik Kinase %Inhibition: 10.2%
PDGF-R
  PDGF Kinase %Inhibition: 7.3%
